One experiment relates to blood pressure. The experiment can be described thus: Tests for action on the cardiovascular system: hypotensive activity (activity in method 1, rats or cats, or method 2), reported in words. In kind it is in vivo, rat, cat. The conditions noted are these: standard test procedure, result in words. As to the method: Tests for action on the cardiovascular system were conducted according to one of the following procedures:
Cats were anaesthetised with pentobarbitone sodium (30 mg/kg) and the cephalic vein, femoral and carotid arteries and trachea were cannulated. The carotid cannula was introduced into the left ventricle and the femoral cannula into the aorta. Blood pressure and heart rate were recorded from the aortic cannula and left ventricular pressure from the carotid cannula. The test compunds were administered intravenously (0.1-25.6 mg/kg).
Method 2 (hypertensive rats)
Male or female rats are rendered hypertensive by applying a figure of 8 ligature around one kidney and contralateral nephrectomy. Blood pressure stabilises at a hypertensive level after 6 weeks. Systolic pressure is measured indirectly using a Decker Caudal Plethysmograph A control group of rats is run with each group treated with drug. Each group usually consists of six rats. Drugs are usually administered by the IP or oral routes. Pressures are read prior to drug administration and at two and 24 hours thereafter.

Another experiment relates to α-adrenoceptor. The experiment can be described thus: α-Adrenoceptor antagonism on the guinea pig aortic strip. The conditions noted are these: for α-blockade pA2: Table 4; for α-adrenoceptor antagonism: result in words. The text has this:
Carried out on the guinea pig aortic strip [Furchgott and Bhadrakom (1953) J. Pharmac. exp. Ther. 108, 129-143] by the method of Alps et al [Br. J. Pharmac. 1972 44, 52-62].

The subject of experiment [1] is blood pressure and heart rate. The experiment can be described thus: Method 1 (rat): hypotensive activity in anaesthetised rats, i.v. To be noted: for minimal effective dose: Rattus norvegicus, iv, 0.25 h, read-out: Hypotensive Activity.
Procedure: Rats were anaesthetised with pentobarbitone sodium (60 mg/kg) and the jugular vein, trachea and carotid artery were cannulated. […] A decrease in heart rate of more than 30% from control values was considered to be significant bradycardia.
For another experiment, the target named is T1, histamine (Cavia porcellus, UniProt P31389).
T1 construct: from tissue
T1 sequence (P31389 whole entry): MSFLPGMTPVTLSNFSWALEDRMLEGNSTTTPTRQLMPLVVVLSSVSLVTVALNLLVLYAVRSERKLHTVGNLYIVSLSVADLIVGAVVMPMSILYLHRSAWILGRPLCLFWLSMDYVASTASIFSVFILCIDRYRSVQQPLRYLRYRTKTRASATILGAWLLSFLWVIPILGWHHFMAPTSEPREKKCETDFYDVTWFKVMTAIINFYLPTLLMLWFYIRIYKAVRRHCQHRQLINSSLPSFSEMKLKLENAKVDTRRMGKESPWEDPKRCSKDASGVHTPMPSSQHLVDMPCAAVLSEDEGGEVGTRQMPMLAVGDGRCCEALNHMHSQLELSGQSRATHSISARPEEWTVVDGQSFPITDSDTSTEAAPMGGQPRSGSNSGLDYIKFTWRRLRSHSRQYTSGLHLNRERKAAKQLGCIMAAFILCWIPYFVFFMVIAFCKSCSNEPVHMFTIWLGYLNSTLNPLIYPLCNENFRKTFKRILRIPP
Briefly: Antihistamine activity by the method of Alps et al. To be noted: for Kb: Table 4, read-out: Antihistamine pA2 (converted); for antihistamine activity: result in words.

Bounds are passed on as bounds.

With `O=C(CCCN1CCC(NC(=O)c2ccccc2)CC1)c1ccc2c(c1)CCCC2` [Example 58, 1-[4-(1,2,3,4-Tetrahydro-6-naphthyl)-4-oxobutyl]-4-benzamidopiperidine], the hypotensive activity result with blood pressure was “hypotensive activity”. Besides, the “α-blockade pA2” value in the experiment on α-adrenoceptor came out at 6.9. Besides, in experiment [1], the minimal effective dose fell in the range of 1.6 to 3.2 mg/kg.
`NC1CCN(CCCC(=O)c2ccccc2)CC1` [Example 72, 4-Amino-1-(4-phenyl-4-oxobutyl)piperidine]: in the experiment on α-adrenoceptor, the “α-blockade pA2” value worked out at 6.9.
As to `O=C(NC1CCN(CCCCc2ccccc2)CC1)c1ccccc1` [Example 46, 1-(4-Phenylbutyl)-4-benzamidopiperidine], in the experiment on blood pressure, the hypotensive activity entry is given as “hypotensive activity”. Besides, in the experiment with α-adrenoceptor, the “α-blockade pA2” value is recorded as 6.95 and the α-adrenoceptor antagonism result is given as “α-adrenoceptor antagonist”. In addition, at histamine, the Kb was 39.8 nM and the antihistamine activity entry is on record as “antihistamine activity”. Also, the minimal effective dose in experiment [1] was 6.4 to 12.8 mg/kg.
On to `O=C(NC1CCN(CCOc2ccccc2)CC1)c1ccccc1` [Example 52, 1-(2-Phenoxyethyl)-4-benzamidopiperidine], for which the hypotensive activity entry in the experiment on blood pressure is “marked hypotensive activity”. Also, the “α-blockade pA2” value in the experiment with α-adrenoceptor is on record as 5.9. Moreover, in experiment [1], the minimal effective dose lay within 6.4 to 12.8 mg/kg.
Consider `O=C(NC1CCN(CCCCc2ccc(F)cc2)CC1)c1ccccc1` [Example 40, 1-[4-(p-Fluorophenyl)-n-butyl]-4-benzamidopiperidine], for which, in the experiment on blood pressure, the hypotensive activity result is “hypotensive activity”. In the experiment on α-adrenoceptor, the “α-blockade pA2” value was 6.4 and the α-adrenoceptor antagonism entry is “α-adrenoceptor antagonism”. On histamine, the Kb is 31.6 nM and the antihistamine activity entry is “anti-histamine activity”. In addition, the minimal effective dose in experiment [1] lay within 1.6 to 3.2 mg/kg.
For `O=C(NC1CCN(CCCCc2ccc3c(c2)CCCC3)CC1)c1ccccc1` [Example 81, 1-[4-(1',2',3',4'-Tetrahydro-6-naphthyl)butyl]-4-benzamidopiperidine], the hypotensive activity entry with blood pressure is listed as “hypotensive activity”. For the same molecule, in the experiment with α-adrenoceptor, the “α-blockade pA2” value is reported as 6.6. Moreover, the minimal effective dose in experiment [1] is 1.6 to 3.2 mg/kg.
In the case of `O=C(CCCN1CCC(NC(=O)c2ccc3c(c2)OCO3)CC1)c1ccccc1` [Example 74, 4-Piperonylamido-1-(4-phenyl-4-oxobutyl)-piperidine], the hypotensive activity result with blood pressure is reported as “hypotensive activity”. The “α-blockade pA2” value in the experiment with α-adrenoceptor came out at 6.4. The minimal effective dose in experiment [1] is 6.4 to 12.8 mg/kg.
Turning to `O=C(NC1CCN(CCC2=CCc3ccccc32)CC1)c1ccccc1` [Example 14, 1-[2-(3-Indenyl)ethyl]-4-benzamidopiperidine], the hypotensive activity entry in the experiment with blood pressure is listed as “hypotensive activity”. The antihistamine activity entry at histamine is on record as “antihistamine activity”. Also, the minimal effective dose in experiment [1] was 6.4 to 12.8 mg/kg.
Consider `Cc1ccc(C(=O)CCCN2CCC(NC(=O)c3ccccc3)CC2)c(C)c1` [Example 45, 4-Benzamido-1-[4-(2,4-dimethylphenyl)-4-oxo-butyl]piperidine], for which, in the experiment with blood pressure, the hypotensive activity result is “hypotensive activity”. Also, in the experiment on α-adrenoceptor, the “α-blockade pA2” value is given as 7.2 and the α-adrenoceptor antagonism entry is reported as “α-adrenoceptor antagonist activity”. Further, at histamine, the Kb is 10 nM and the antihistamine activity entry is given as “antihistamine”. Besides, in experiment [1], the minimal effective dose was 1.6 to 3.2 mg/kg.
As to `O=C(NC1CCN(CCc2ccncc2)CC1)c1ccccc1` [Example 93, 1-[2-(4-Pyridyl)ethyl]-4-benzamidopiperidine], the hypotensive activity entry in the experiment with blood pressure is recorded as “marked hypotensive activity”. Also, the antihistamine activity result at histamine is reported as “antihistamine activity”. For the same molecule, the minimal effective dose in experiment [1] was under 30 mg/kg.
As for `O=C(NC1CCN(CCC(O)c2ccc3c(c2)OCCO3)CC1)c1ccccc1` (stereo not drawn) [Example 92, 1-[3-(1,4-Benzodioxan-6-yl)-3-hydroxypropyl]-4-benzamido piperidine], the hypotensive activity entry with blood pressure is “hypotensive activity”; in experiment [1] (Table 3, cumulative iv dose, fall in diastolic blood pressure of 30 mm or more for at least 15 min), “+ ++”. Moreover, the “α-blockade pA2” value in the experiment on α-adrenoceptor is 6.6.
As to `CC(=O)Nc1ccc(OCC(O)CN2CCC(NC(=O)c3ccccc3)CC2)cc1` (stereo not drawn) [Example 17, 1-[1-(4-Acetamidophenoxy)-2-hydroxyprop-3-yl]-4-benzamidopiperidine], the hypotensive activity result with blood pressure is “hypotensive activity”. On histamine, the Kb was 100 nM and the antihistamine activity entry is “antihistamine activity”. In addition, the minimal effective dose in experiment [1] was under 30 mg/kg.
As for `O=C(NC1CCN(CCCC2=CCc3ccccc32)CC1)c1ccccc1` [Example 15, 1-[3-(3-Indenyl)propyl]-4-benzamidopiperidine], the hypotensive activity result in the experiment with blood pressure was “hypotensive”. The “α-blockade pA2” value in the experiment with α-adrenoceptor was determined as 7.4. For the same molecule, the antihistamine activity result on histamine was “antihistamine activities”. Also, the minimal effective dose in experiment [1] is 6.4 to 12.8 mg/kg.
With `O=C(CCN1CCC(NC(=O)c2ccccc2)CC1)c1ccccc1` [Example 69, 4-Benzamido-1-(3-phenyl-3-oxopropyl)piperidine], the hypotensive activity entry in the experiment on blood pressure is reported as “marked hypotensive activity”. Moreover, the “α-blockade pA2” value in the experiment on α-adrenoceptor amounted to 6.6. Further, in experiment [1], the minimal effective dose lay in the range of 1.6 to 3.2 mg/kg.
Consider `CC(C)(C)c1ccc(C(=O)CCCN2CCC(NC(=O)c3ccccc3)CC2)cc1` [Example 70, 4-Benzamido-1-[4-(4-tert-butyl-phenyl)-4-oxobutyl]piperidine], for which the hypotensive activity entry in the experiment with blood pressure was “hypotensive activity”. In the experiment on α-adrenoceptor, the “α-blockade pA2” value was found to be 6.6. The minimal effective dose in experiment [1] amounted to 0.8 mg/kg.
Turning to `O=C(NC1CCN(CCCC(c2ccc(F)cc2)c2ccc(F)cc2)CC1)c1ccccc1` [Example 88, 4-(4-Benzamidopiperid-1-yl)-1,1-(di-p-fluorophenyl)butane], in the experiment with blood pressure, the hypotensive activity result is recorded as “hypotensive activity”. For the same molecule, the “α-blockade pA2” value in the experiment on α-adrenoceptor was 5.9. The minimal effective dose in experiment [1] lay in the range of 1.6 to 3.2 mg/kg.
For `O=C(CCCN1CCC(NC(=O)C2CCCCC2)CC1)c1ccccc1` [Example 75, 4-Cyclohexanecarboxamido-1-(4-phenyl-4-oxobutyl)piperidine], in that order: “marked hypotensive activity”, 6.9 and 6.4 to 12.8 mg/kg.
As to `O=C(CCN1CCC(NC(=O)c2ccccc2)CC1)c1ccc2c(c1)OCCO2` [Example 91, 1-[3-(1,4-Benzodioxan-6-yl)-3-oxopropyl]-4-benzamidopiperidine], the hypotensive activity result in the experiment with blood pressure is recorded as “hypotensive activity”. For the same molecule, the minimal effective dose in experiment [1] turned out to be 25.6 mg/kg.
On the same counts, the results for `CC(C(O)c1ccc(O)cc1)N1CCC(NC(=O)c2ccccc2)CC1` (stereo not drawn) [Example 65, 1-[1-Methyl-2-(4-hydroxy)phenyl-2-hydroxyethyl]-4-benzamidopiperidine] are “hypotensive activity” and 25.6 mg/kg.
For the molecule `O=C(NC1CCN(CCc2c[nH]cn2)CC1)c1ccccc1` [Example 96, 1-[2-(4-Imidazolyl)ethyl]-4-benzamidopiperidine], in the experiment on blood pressure, the hypotensive activity result is given as “hypotensive activity”. Also, the antihistamine activity result at histamine is listed as “anti-histamine activity”. In addition, in experiment [1], the minimal effective dose lay in the range of 6.4 to 12.8 mg/kg.
With `O=C(NC1CCN(CCCC(O)c2ccccc2)CC1)c1ccccc1` (single isomer, unassigned; (+)) [Example 86, (+)-4-Benzamido-1-(4-phenyl-4-hydroxybutyl)piperidine], in the experiment on blood pressure, the hypotensive activity result was “hypotensive activity”. Further, in experiment [1], the minimal effective dose is 1.6 to 3.2 mg/kg.
Consider `O=C(NC1CCN(CCC2CCCCC2)CC1)c1ccccc1` [Example 1, 1-[2-(Cyclohexyl)ethyl]-4-benzamidopiperidine], for which the hypotensive activity result with blood pressure is on record as “good hypotensive activity”. Also, the minimal effective dose in experiment [1] lay within 1.6 to 3.2 mg/kg.
In the case of `COc1ccc(CCN2CCC(NC(=O)c3ccccc3Cl)CC2)cc1OC` [Example 6, 1-[2-(3,4-Dimethoxyphenyl)ethyl]-4-(2-chlorobenzamido)-piperidine], the hypotensive activity entry in the experiment with blood pressure is “hypotensive activity”. Also, in experiment [1], the minimal effective dose is 25.6 mg/kg.
Turning to `O=C(NC1CCN(CCCC(O)c2ccccc2)CC1)c1ccccc1` (stereo not drawn) [Example 53, 4-Benzamido-1-(4-phenyl-4-hydroxybutyl)piperidine], in the experiment on blood pressure, the hypotensive activity entry is “hypotensive activity”. The minimal effective dose in experiment [1] lay in the range of 6.4 to 12.8 mg/kg.
`O=C(CN1CCC(NC(=O)c2ccccc2)CC1)c1ccc(O)c(O)c1` [Example 11, 1-[2-(3,4-Dihydroxyphenyl)-2-oxoethyl]-4-benzamidopiperidine]: the hypotensive activity entry in the experiment on blood pressure is “marked hypotensive activity”. For the same molecule, in experiment [1], the minimal effective dose fell in the range of 1.6 to 3.2 mg/kg.
Consider `O=C(NC1CCN(CCCC(c2ccccc2)c2ccccc2)CC1)c1ccccc1` [Example 90, 4-(4-Benzamidopiperid-1-yl)-1,1-diphenyl butane], for which the hypotensive activity result in the experiment with blood pressure was “hypotensive activity”. The minimal effective dose in experiment [1] lay within 6.4 to 12.8 mg/kg.
For the molecule `O=C(NC1CCN(CCc2csc3ccccc23)CC1)c1ccccc1` [Example 100, 1-[2-(3-Benzo[b]thienyl)ethyl]-4-benzamidopiperidine], the hypotensive activity entry in the experiment with blood pressure was “hypotensive activity”. Also, at histamine, the antihistamine activity entry was “antihistamine activity”. Moreover, the minimal effective dose in experiment [1] is under 30 mg/kg.
For `O=C(NC1CCN(CCc2ccccc2[N+](=O)[O-])CC1)c1ccccc1` [Example 33, 1-[2-(o-Nitrophenyl)ethyl]-4-benzamido-piperidine], the hypotensive activity entry with blood pressure is listed as “hypotensive activity”. In addition, in experiment [1], the minimal effective dose was in the range of 6.4 to 12.8 mg/kg.

(Values after patent US4029801A, “Pharmaceutical compositions and methods of treating hypertension” (priority 1970, dated 1977).)
